Patent US12144886B2, “Perineural administration of resiniferatoxin for treatment of maladaptive pain” (Sorrento Therapeutics, Inc., priority 2018, dated 2024)

Assays:
[1] = tested on: declawed cat with maladaptive pain; experiment: Tolerance and safety of perineural RTX in a single declawed cat; type: in vivo
Method: The safety of the injection of RTX is assessed by comparing the results of a complete blood count (CBC) and a chemistry panel done at screening with the results obtained at day 14. Cats were also monitored for adverse events.
Tolerance, safety, and analgesic effects of RTX administration were evaluated in a single declawed cat with maladaptive pain. […] The cat also presented a self-limiting decreased appetite for 12 hours post injection.

[2] = tested on: Crl:CD(SD) Sprague Dawley rats; experiment: Single dose nerve block injection safety study in rats with 14-day recovery; type: in vivo, rat; settings: for Food consumption: Days 2 to 7
Excerpt: This study was directed to determining the safety of administering RTX, when given as a nerve block injection as a single dose to rats.
119 male and 119 female Crl:CD(SD) Sprague Dawley rats were obtained from Charles River Laboratories, Raleigh, NC. The animals were 10 weeks old and weighed between 212 and 482 g at the initiation of dosing.
The nerve block injection doses were given into the right thigh. The animals were temporarily restrained for dose administration. Animals were sedated via isoflurane inhalation for dose administration. The day of dosing for each animal was designated as Day 1. A necropsy was conducted for a recovery study animal that died on study, and specified tissues were retained. The animal was refrigerated prior to necropsy to minimize autolysis.
Toxicokinetic animals surviving until scheduled euthanasia were euthanized by carbon dioxide inhalation.
Main study and recovery animals were subjected to a complete necropsy examination. A board-certified veterinary pathologist was available for scheduled necropsies.
All statistical tests were conducted at the 5% significance level. All pairwise comparisons were conducted using two-sided tests.
The groups were compared using an overall one-way ANOVA F-test if Levene's test was not significant or the Kruskal-Wallis test if it was significant. […] Datasets with two groups were compared using a Dunnett's test (equivalent to t-test in Nevis 2012 tables) or Dunn's test (equivalent to Wilcoxon Rank-Sum test in Nevis 2012 tables).

[3] = tested on: declawed cats with chronic distal thoracic limb pain; experiment: Adverse events in open-label multicenter trial of perineural RTX in declawed cats; type: in vivo, cat; settings: for Animals with self-limiting reactions related to the treatment: during recovery from anesthesia
Method: Cats suffering from severe bilateral chronic pain (more than 90 days) as a result of severe complications after onychectomy were enrolled in this study (an exploratory, open-label, multicenter clinical trial). Thirteen (13) cases were treated for initial pain and reduced quality of life (QoL). Then, bilateral perineural distal limb injections (ring block technique) were administered under general anesthesia (a combination of diphenhydramine, buprenorphine, dexmedetomidine, ketamine, and isoflurane). Following a published technique (Enomoto et al., 2016) for the nerve block of the manus of the cat, the total dose of RTX was equally distributed adjacent to the 1) superficial branch of the radial nerve, 2) dorsal branch of the ulnar nerve, 3) median nerve and superficial branch of the palmar branch of the ulnar nerve, and 4) deep branch of palmar branch of the ulnar nerve. A total of 2.5 ug (1.25 ug/1 mL per forelimb in Group 1, n=7) and 5 ug (2.5 ug/1 mL per forelimb in Group 2, n=6) of RTX was injected as a one-time treatment. Group 2 included the cat for which detailed results are provided in Example B above. Monitoring of QoL and pain for the following 28 days was accomplished using the Client-Specific Outcome Measures feline (CSOMf), the Feline Musculoskeletal Pain Index (FMPI), two post-injection physical examinations, and videography on days 3, 7, 14, and 28 post injections.

[4] = one cat, 2.5 μg/forelimb perineural
[5] = 10 μg, both sexes, terminal euthanasia

C=C(C)[C@]12C[C@@H](C)[C@@]34O[C@](Cc5ccccc5)(O[C@@H]1[C@@H]3C=C(COC(=O)Cc1ccc(O)c(OC)c1)C[C@]1(O)C(=O)C(C)=C[C@@H]41)O2 [RTX, resiniferatoxin]
Allergic-like reactions ([1]; one cat): No signs of allergic-like reactions were observed
Edema or pain in the injected areas ([1]; one cat): no signs of edema or pain were present
Resolution of adverse events (panting, salivation) ([1]; one cat): resolved within two hours
Complications during RTX administration [1, 4]: No complications were observed
Tolerability of injection [1, 4]: generally well tolerated
Adverse events ([1]; one hour post-injection): panting and salivation
Duration of self-limiting decreased appetite ([1]; post injection, one cat): 12 h
Food consumption ([2]; 2.5 μg, females only): statistically significant decrease
Unscheduled death ([2]; 2.5 μg, one recovery study female, unrelated to test article, attributed to aspiration-related foreign material/inflammation in the lung): found dead on Day 2
Microscopic change in the skeletal muscle ([2]; 10 μg): myofiber degeneration/necrosis
Spleen microscopic correlate ([2]; 10 μg, both sexes): minimal decreased lymphoid cellularity of the white pulp
Thymus microscopic correlate ([2]; 10 μg, both sexes): minimal to mild decreased lymphoid cellularity
Spleen weights [2, 5]: Statistically significant lower absolute and relative spleen weights
Thymic weights [2, 5]: Lower absolute and relative thymic weights
Neutrophils ([2]; 10 μg, females only): statistically significant increase that remained increased after the recovery period
Mean body weight gain ([2]; 10 μg, females, Days 1 to 14): statistically significant decrease
Food consumption ([2]; 10 μg, males only): statistically significant decrease
Mean body weight gain ([2]; 10 μg, males, Days 1 to 2): statistically significant decrease
Microscopic change in the mammary gland (non-adverse) ([2]; >2.5 μg): single cell necrosis
Test article-related organ weight changes at end of recovery ([2]; end of the recovery period (Day 15)): not observed
Reversibility of microscopic changes ([2]; following a 14-day recovery period): fully recovered
Clinical chemistry parameters ([2]; rats): no adverse RTX (resiniferatoxin)-related changes
Tolerability as nerve block injection ([2]; rats, 0.625, 2.5, and 10 μg single dose): well tolerated
Differences in hematology, coagulation, clinical chemistry and urinalysis parameters ([2]; rats, all dose groups): not considered adverse or were not considered vehicle or test article related
no-observed-adverse-effect level (NOAEL) ([2]; rats, single nerve block injection): 10 µg
Mortality, organ weight, gross observations ([2]; single dose 0, 0.625, 2.5, or 10 μg): no test article-related mortality, differences in organ weight, or gross observations
Gross findings ([2]; terminal euthanasia or recovery period animals): No test article-related gross findings
Tolerability of perineural RTX at the described doses ([3]; 2.5 ug and 5 ug total per cat): well tolerated
Adverse event: hypersalivation ([3]; Group 1 (2.5 ug total)): 71.4%
Adverse event: panting ([3]; Group 1 (2.5 ug total)): 57.1%
Adverse event: vocalization ([3]; Group 1 (2.5 ug total)): 57.1%
AEs presented and resolved the same day of administration ([3]; Group 1 (2.5 ug total), 26/30): 86.6%
Animals with self-limiting reactions related to the treatment ([3]; Group 1 (2.5 ug total, 1.25 ug per forelimb, n=7)): 71.4%
Adverse event: hypersalivation ([3]; Group 2 (5 ug total)): 50%
Adverse event: panting ([3]; Group 2 (5 ug total)): 83.3%
Adverse event: vocalization ([3]; Group 2 (5 ug total)): 83.3%
AEs presented and resolved the same day of administration ([3]; Group 2 (5 ug total), 21/22): 95.4%
Animals with self-limiting reactions related to the treatment ([3]; Group 2 (5 ug total, 2.5 ug per forelimb, n=6)): 100%
AEs presented and resolved the same day of administration ([3]; both groups): more than 85%
Time to resolution of most common adverse events after treatment ([3]; both groups): ≤ 4 h
